Results reported in US20040266699A1, “Flavonoid compounds capable of modifying the dynamic and/or physical state of biological membranes and to stimulate the endogenous synthesis of stress proteins in eukaryotic cells, relative synthesis and their use” (priority 2001, published 2004).

Tests used:
human hsp70 promoter = experiment: Luciferase reporter assay under control of human hsp70 promoter in L929 cells exposed to heat shock; assay type: cell-based, murine; conditions: 10 μM, heat shock at 40° C. and 41° C., Bimoclomol as internal positive control
Method: For example, L929 cells, incubated at 37° C., are stressed by heat shock at 40° or 41° C. with exposures variable from 20 min to an hour or more. After heat shock, a molecular assay that involves mRNA purification, its separation on agarose or acrylamide gels followed by hybridization with a labeled probe ([…] performed. Alternatively, the activity of luciferase used as reported gene under the control of a heat shock promoter can be used (FIG. 1). In this case, after heat shock cells are lysed in the presence of an appropriate substrate for luciferase, the activity is measured with a luminometer. […] The test utilized to assay the over expression of heat shock genes is based on a rapid enzymatic assay to determine luminescence of eukaryotic cells transfected with luciferase gene. The luciferase gene has been cloned in an eukaryotic plasmid under the control of human hsp70 gene and transfected in murine fibroblasts (L929 cell line). In such cells, a heat shock induces hsp70 promoter that activates transcription of the downstream gene (reporter gene, e.g. luciferase) whose activity is measured determining luciferase in the presence of luciferine with a luminometer. […] After lysis, luciferase activity has been determined measuring the quantity of light emitted with a luminometer. […]

[1] = Membrane fluidity (DPH fluorescence anisotropy) in artificial membranes (LUVs); conditions: LUVs of di-oleil-fosfatidyl-ethanolamine, di-oleil-fosfatidyl-choline, cardiolipin and fosfatidylserine; 1 DPH per 500 lipid molecules
Text: Test to evaluate changes of MPS in artificial membranes (LUVs, Large Unilamellar Vesicles), made of di-oleil-fosfatidyl-ethanolamine, di-oleil-fosfatidyl-choline, cardiolipin and fosfatidylserine, that mimic biological membrane lipid composition. Fluidity has been measured with DPH (1,6-difenyl-1,3,5-esatriene) measuring fluorescence.
In these membranes, every 500 lipid molecules is inserted. 1 molecule of DPH This substance emits fluorescent light when it is excited with polarized light. The more a membrane is rigid the less is the capacity of the molecules to rotate freely in the membrane. Using a fluorimeter that detects the emitted fluorescence by DPH, either vertically in respect to the polarizing light or horizontally, the anisotropy of the membrane is determined and correlated to its fluidity. The more the membrane is fluid, the more DPH rotates freely and emits light in a direction different from that with which it receives the excitation. To a higher value of anisotropy corresponds a higher rigidity of the membrane, while a lower anisotropy (low fluorescence) corresponds a higher fluidity.

With `Oc1ccc2c(c1)O[C@H](c1ccc(O)c(O)c1)[C@@H](O[C@@H]1OC[C@@H](O)[C@H](O)[C@H]1O)C2` [#11, fisetinidol-3-O-β-D-xylopyranoside] the “heat shock response (hsp70 promoter-driven luciferase activity / inducibility of hsp70 mRNA transcription by heat shock)” value (human hsp70 promoter) was “induce a heat shock response” and the “change of membrane physical state (fluidity) measured with DPH fluorescence” value [1] was “increases fluidity”.
For `Oc1ccc(C=Cc2cc(O)cc(O)c2)cc1` [#100, Resveratrol, reference compound], the “heat shock response (hsp70 promoter-driven luciferase activity / inducibility of hsp70 mRNA transcription by heat shock)” value (human hsp70 promoter) was “inhibits the inducibility of hsp70 mRNA transcription by heat shock”.
